# Experiments:
# [1] = ELISA and FIV immunoblot for antibodies to vaccine peptides/MAPs; type: in vivo, cat; conditions: IWV/MAP-vaccinated cats, throughout the vaccination (pilot study)
# Method: To avoid detection of vaccine antibodies to p24 and RT, post-challenge sera were evaluated for infection-induced FIV antibodies by ELISA using 200 ng/well of transmembrane peptide (TM, aa 694-705: […] (SEQ ID NO:68)) as previously described. The positive threshold for anti-TM antibodies was set at 0.2 O.D. The post-vaccination sera immediately before challenge were evaluated for NAb titer to FIVPet and FIVFC1 by NAb assay as previously described. The post-vaccination/pre-challenge sera were tested for antibodies to vaccine peptides by ELISA using each peptide as substrate and by FIV immunoblot with mini-blot modification as previously described. All ELISA thresholds were set at twice the average of the individual serum from 15-20 SPF cats.
# [2] = system: PBMC from FIV-vaccinated cats; assay: Feline IL2 ELISpot of PBMC from vaccinated cats; type: cell-based, cat
# Method: IFNγ and IL2 ELISpot analyses were performed using feline IFNγ ELISpot and feline IL2 ELISpot kits (R&D Systems, Cat# SEL764 and SEL1890) as described. The threshold is defined as ≥50 spot forming units (SFU) per 1×10^6 PBMC when counted with MVS ELISpot Reader (MVS Pacific, LLC). Each result is an average of the duplicate samples after subtraction of the average value of the media controls.
# Concurrently, the overlapping peptide pools of FIV structural/enzyme proteins were used to stimulate PBMC and T cells from FIV-vaccinated cats. These cats were vaccinated with prototype dual-subtype FIV vaccine which was the prototype to our commercial FIV vaccine (Coleman et al., 2014). The feline assays (Example 1) equivalent to those of human assays (Sanou et al., 2013; Roff et al., 2015) were used except for ICS analysis. In place of ICS for cytolysin/cytotoxins, IL2 ELISpot analysis was performed. […] The results for FIV-vaccinated cats included IFNγ and IL2 productions and CD3^+CD4+ and CD3^+CD8^+ T-cell proliferation (Table 9, the second set of results).
# The feline IFNγ and L2 ELISpot analyses of PBMC to FIV MAPs and peptides were performed as previously described (Abbott et al. (2012)) using feline IFNγ modular kit (R&D Systems, Minneapolis, Minn.) and feline IL2 modular kit (R&D Systems). All results shown in the figures (FIGS. 8A-1, 8B-1, 8A-2, 8B-2, 8A-3, 8B-3) are after subtracting the average value of the results from all control cats.
# The second parameter evaluated was the ability of the peripheral blood mononuclear cells (PBMC) from vaccinated and control cats to produce IL2 and interferon-γ (IFNγ) proteins in responses to FIV MAPs and peptides (FIGS. 8A-1, 8A-2, 8A-3, 8B-1, 8B-2, 8B-3) using feline IL2 and IFNγ ELISpot assays (Aranyos et al. (2016); Abbott et al. (2012)). IL2 enhances the proliferation of FIV-specific CD4^+ T cells and CD8^+ T cells. IFNγ is known enhance the FIV-specific CTL activities in vaccinated cats (Abbas et al. (2015)).
# [3] = system: CD3^+CD4^+ T cells from HIV^+ subjects; assay: CFSE-based CD3+CD4+ T-cell proliferation, HIV+ human subjects; conditions: for CD4, frequency of responders: FIV epitope peptide; for CDC4^+ T (T-cell proliferation), frequency of responders: FIV peptides
# Method: The overlapping peptide pools of FIV and HIV-1 structural and enzyme proteins were used to stimulate the […] (PBMC) and the T cells from HIV^+ subjects as previously described for epitope mapping of HIV-1 and FIV p24 and reverse transcriptase (RT) (Sanou et al., 2013; Roff et al., 2015). The individual peptides in those peptide pools with positive responses to either interferon-γ (IFNγ) production and/or T-cell proliferation were determined with IFNγ ELISpot analysis and CFSE-based CD3^+CD4^+ and CD3^+CD8^+ T-cell proliferation analyses followed by the FACS-based intracellular staining (ICS) for cytolysin (perforin) and cytotoxin (granzyme A [GrzA] and GrzB) (Sanou et al., 2013; Roff et al., 2015). Besides viral p24 and RT proteins, the identical approach was used to identify anti-HIV/FIV T-cell epitopes on viral matrix (MA), nucleocapsid (NC), protease (PR), RNAase, integrase (IN), surface envelope (SU Env), and transmembrane envelope (TM Env) (FIG. 12).
# Since our goal is to develop HIV vaccine for human use, the HIV peptides (Table 10) counterpart of the cross-reactive FIV peptides shown in Table 9 were tested with PBMC and T cells from HIV^+ subjects. The immune functions analyzed were human IFNγ production by ELISpot, cytolysin/cytotoxin production by ICS, and CFSE-based proliferation of CD3^+CD4^+ and CD3^+CD8^+ T cells from HIV^+ subjects (Table 10, the first set of results). In addition, the Los Alamos National Laboratories (LANL) database was used to identify the HLA allele(s) of the HIV epitope sequence with CTL activity that can exist within the sequence of the conserved counterpart HIV peptide (Table 9, LANL CTL). The bold HLA class-I supertypes and the bold 2-digit alleles are those on the “Optimal CD8^+ CTL Epitopes” list and those without bold are alleles for potential CTL epitope. […] The HLA class II such as HLA-DRB1 has yet to be fully classified into supertypes, and therefore the 4-digit resolution nomenclatures for the HLA-DRB1 alleles are shown.
# The threshold for positive IFNγ and IL2 ELISpot responses is ≥50 spot-forming units (SFU) per 10^6 PBMC. The threshold for CFSE-based CD4^+ and CD8^+ T-cell proliferation is ≥2% CD4^+ T-cell CFSE^low or CD8^+ T-cell CFSE^low. The threshold of FACS-based intracellular cytokine staining (ICS) is ≥0.2%. […] The nine FIV peptides in black were used in the current MAP vaccine trial, whereas the 13 peptides in blue were not used. […] The MAPs and their corresponding peptide(s) were also tested for their ability to enhance or suppress in vitro FIV infection of feline PBMC (E/S of peptides and E/S of MAP).
# The counterpart HIV-1 peptides of the FIV peptides were also tested for immunogenicity using PBMC and T cells from HIV^+ human subjects. […] The HRT7-1 and HRT7-2 were also tested with cells from HIV^+ subjects on ART. The threshold for positive IFNγ ELISpot response is ≥75 spot-forming units (SFU) per 10^6 PBMC. The threshold for CFSE-based CD4^+ (CD4^+ T) and CD8^+ (CD8^+ T) T-cell proliferation is ≥2% CD4^+ T-cell CFSE^low or CD8^+ T-cell CFSE^low. The threshold of intracellular cytokine staining (ICS) of FACS-based cytolysin (perforin) and cytotoxins (granzymes A and B) in CD4^+ T cells (CyCD4) and CD8^+ T cells (CyCD8) is ≥0.2%. […] The nine HIV-1 peptides in black are the counterpart FIV peptides used in the current MAP vaccine trial, whereas the 13 peptides in blue were not.
# FIVFC1 = assay: FIV enhancement and suppression (E/S) analysis of in vitro FIV infection of feline PBMC; type: cell-based, feline immunodeficiency virus; conditions: FIV-vaccinated cats; for E/S pMAP: viral enhancement or suppression: Palmitoyled Pam-MAP (pMAP) of the peptide, ** = MAP(Fp4-3/Fp14-1); for E/S: viral enhancement or suppression: peptide
Sequence,Peptide-specific serum antibodies (ELISA) [1],"IL2, frequency of responders ([2]; FIV epitope peptide)","IL2, frequency of responders ([2]; FIV peptides)","CD4, frequency of responders [3]","CDC4^+ T (T-cell proliferation), frequency of responders [3]",E/S pMAP: viral enhancement or suppression (FIVFC1),E/S tMAP: viral enhancement or suppression (FIVFC1; Tat-MAP (tMAP) of the peptide),E/S: viral enhancement or suppression (FIVFC1)
KKKSGKWRMLIDFRV [FRT3-3],No specific antibodies,++ (26%-40% (++)),++ (25.1%-40% (++)),— (0%-1.4% (—)),— (0%-1.4%(—)),↓X,↓+,↑
KFLYTAFAMQELR [FTM4-3],,++++ (>54% (++++)),++++ (>54% (++++)),— (0%-1.4% (—)),— (0%-1.4%(—)),,,
AGLRQSLEQYQVVKQ [FSU4],,— (0%-1.4% (—)),— (0%-1.4%(—)),— (0%-1.4% (—)),— (0%-1.4%(—)),,,
WRMLIDFRVLNKL [FRT3-4],No specific antibodies,++ (26%-40% (++)),++ (25.1%-40% (++)),— (0%-1.4% (—)),— (0%-1.4%(—)),,,↓
LLLILCLPTLVDCIRN [FTM8(20)],,— (0%-1.4% (—)),— (0%-1.4%(—)),++ (26%-40% (++)),++ (25.1%-40% (++)),,,
PTDMATLIMAAPGCA [Fp4-3],No specific antibodies,+ (12.5%-25% (+)),+ (12.5%-25% (+)),— (0%-1.4% (—)),— (0%-1.4%(—)),↑**,,↑
